Assay results as given in patent US20230265336A1, “COMPOSITION WITH FOAMING PROPERTIES” (priority 2020, published 2023).

Columns and labels:
[1] = based on the safety data sheet (SDS); cited from earlier work

Row | SMILES | Solubility in brine (in words) | Biodegradability (in words) [1] | Toxicity as an individual substance (in words) [1]
1 | [O]=[Mg] [MgO] | insoluble | – | –
2 | [Cl-].[Cl-].[Mg+2] [magnesium chloride] | – | good biodegradability | non-toxic
